Experimental data published in patent US10676791B2, “Methods for predicting response to DNA repair pathway inhibitors in diffuse large B-cell lymphoma” (INSERM (INSTITUT NATIONAL DE LA SANTÉ ET DE LA RECHERCHE …, priority 2014, dated 2020).
Where two headings read alike, the source gives them in different places.

Legend:
Format in all cases: cell-based
HT = test: DLBCL cell line growth inhibition (Cell Titer Glo Luminescent Assay), HT; settings: read-out: PJ34 IC50
Protocol: (§1) 6 DLBCL cell lines were treated by increasing doses of PARP inhibitor (PJ34 hydrochloride). DLBCL cell lines growth was quantified with a Cell Titer Glo Luminescent Assay (Promega, Madison, Wis., USA) and the 50% inhibitory concentration (IC50) was determined using GraphPad Prism software (http://www.graphpad.com/scientific-software/prism/) (FIG. 7A).

OCILY3 = test: DLBCL cell line growth inhibition (Cell Titer Glo Luminescent Assay), OCILY3; settings: read-out: PJ34 IC50
Protocol: as §1

OCILY1 = test: DLBCL cell line growth inhibition (Cell Titer Glo Luminescent Assay), OCILY1; settings: read-out: PJ34 IC50
Protocol: as §1

U2932 = test: DLBCL cell line growth inhibition (Cell Titer Glo Luminescent Assay), U2932; settings: read-out: PJ34 IC50
Protocol: as §1

DOHH2 = test: DLBCL cell line growth inhibition (Cell Titer Glo Luminescent Assay), DOHH2; settings: DOHH cell line (high HRR score)
Protocol: as §1

OCILY7 = test: DLBCL cell line growth inhibition (Cell Titer Glo Luminescent Assay), OCILY7; settings: OCILY7 cell line (high HRR score)
Protocol: as §1

DLBCL cell lines = DLBCL cell lines growth inhibition (Cell Titer Glo Luminescent Assay), panel of 6 cell lines
Protocol: as §1

Molecule CN(C)CC(=O)Nc1ccc2[nH]c(=O)c3ccccc3c2c1.Cl [PJ34, PJ34 hydrochloride] has an IC50 (HT) of 8.08 µM, an IC50 (OCILY3) of 7.26 µM and an IC50 (OCILY1) of 7.57 µM. The IC50 (U2932) was 7.2 µM, the IC50 (DOHH2) was 15.2 µM and the IC50 (OCILY7) was 14 µM. For the same molecule, the “sensitivity to PARPi” value (DLBCL cell lines; DLBCL cell lines with a high BER score, excluding the cell lines with a high HRR score) was “sensitive”, the IC50 (DLBCL cell lines; DLBCL cell lines with a lower HRR score, read-out: median IC50) was 7.41 µM and the IC50 (DLBCL cell lines; median over 6 DLBCL cell lines) was 7.82 µM. For the same molecule, the “fold higher resistance to PARPi” value (DLBCL cell lines; two DLBCL cell lines with high HRR score compared to cell lines with a lower HRR score) was 2 fold.
